The source made the active and inactive calls. The calls are words filed in the database; no cut-off is given here.
Key:
HCT-116 [1] = assay: Induction of apoptosis in p53 knockout human HCT-116 cells assessed as increase in cleaved caspase 3 expression upto 5 uM incubated for 24 hrs by Western blot analysis; type: functional, cell-based
HCT-116 [2] = assay: Induction of apoptosis in human HCT-116 cells assessed as early apoptotic cells at 1 uM incubated for 24 hrs by annexin V FITC/propidium iodide staining based flow cytometry (reference value: 4.7%); type: functional
BGC-823 = assay: Antiproliferative activity against human BGC-823 cells assessed as inhibition of cell growth measured after 48 hrs by MTT assay; type: functional, cell-based; settings: BGC-823, 48 h
HCT-116 [3] = assay: Inhibition of colony formation in human HCT-116 cells at 1 to 4 uM measured after 14 days by crystal violet staining based analysis; type: functional, cell-based; settings: dose 1-4 µM, time 14.0 day
HCT-116 [4] = assay: Induction of apoptosis in human HCT-116 cells assessed as necrotic cells at 1 uM incubated for 24 hrs by annexin V FITC/propidium iodide staining based flow cytometry (reference value: 7.7%); type: functional
HCT-116 [5] = assay: Antiproliferative activity against human HCT-116 cells expressing ATG7-FLAG assessed as inhibition of cell growth measured after 24 hrs by CCK-8 assay; type: functional, cell-based; settings: HCT-116, 24 h
HCT-116 [6] = assay: Induction of morphological changes in human HCT-116 cells assessed as appearance of round cells at 2 to 6 uM measured after 24 hrs by microscopic analysis; type: functional, cell-based; settings: dose 2-6 µM
HCT-116 [7] = assay: Induction of apoptosis in human HCT-116 cells assessed as viable cells at 2 uM incubated for 24 hrs in presence of Z-VAD-FMK by annexin V FITC/propidium iodide staining based flow cytometry (reference value: 86.2 %); type: functional; settings: read-out: Activity
HCT-116 [8] = assay: Downregulation of Myc-v2 in human HCT-116 cells at 2 uM incubated for 24 hrs by RNA sequencing analysis; type: functional, cell-based
HCT-116 [9] = assay: Induction of apoptosis in human HCT-116 cells assessed as viable cells at 1 uM incubated for 24 hrs by annexin V FITC/propidium iodide staining based flow cytometry (reference value: 83 %); type: functional; settings: read-out: Activity
HCT-116 [10] = assay: Upregulation of Kras signaling pathway in human HCT-116 cells at 2 uM incubated for 24 hrs by RNA sequencing analysis; type: functional, cell-based
HCT-116 [11] = assay: Induction of apoptosis in human HCT-116 cells assessed as viable cells at 1 uM incubated for 24 hrs in presence of Z-VAD-FMK by annexin V FITC/propidium iodide staining based flow cytometry (reference value: 86.2 %); type: functional; settings: read-out: Activity
HCT-116 [12] = assay: Induction of apoptosis in human HCT-116 cells assessed as necrotic cells at 1 uM incubated for 24 hrs in presence of Z-VAD-FMK by annexin V FITC/propidium iodide staining based flow cytometry (reference value: 2.9 %); type: functional
HCT-116 [13] = assay: Induction of apoptosis in human HCT-116 cells assessed as increase in LC3-II expression upto 4 uM incubated for 24 hrs by Western blot analysis; type: functional, cell-based
HCT-116 [14] = assay: Induction of autophagy in ATG7 knockout human HCT-116 cells assessed as increase in LC3-II expression upto 4 uM measured after 24 hrs by Western blot analysis; type: functional, cell-based
HCT-116 [15] = assay: Induction of apoptosis in human HCT-116 cells assessed as late apoptotic cells at 2 uM incubated for 24 hrs by annexin V FITC/propidium iodide staining based flow cytometry (reference value: 4.6%); type: functional
CT26 = assay: Antitumor activity against […] CT26 cells xenografted in C57BL/6 mouse assessed as reduction in tumor volume at 45 mg/kg, ip administered once every two days measured after 8 days; type: functional, organism-based; settings: time 8.0 day
HCT-116 [16] = assay: Induction of apoptosis in p53 knockout human HCT-116 cells assessed as increase in LC3-II expression upto 4 uM incubated for 24 hrs by Western blot analysis; type: functional, cell-based
HCT-116 [17] = assay: Induction of apoptosis in ATG7 knockout human HCT-116 cells assessed as increase in caspase 3 expression upto 4 uM incubated for 24 hrs by Western blot analysis; type: functional, cell-based
HCT-116 [18] = assay: Induction of autophagy in human HCT-116 cells assessed as increase in p62 expression at 3 uM measured after 48 to 60 hrs by Western blot analysis; type: functional, cell-based; settings: time 48-60 hrs
HCT-116 [19] = assay: Antiproliferative activity against human HCT-116 cells assessed as inhibition of cell growth measured after 24 hrs by CCK-8 assay; type: functional, cell-based; settings: HCT-116, 24 h
A-375 = assay: Antiproliferative activity against human A-375 cells assessed as inhibition of cell growth measured after 48 hrs by MTT assay; type: functional, cell-based; settings: A-375, 48 h
HCT-116 [20] = assay: Induction of autophagy in human HCT-116 cells expressing assessed as LC3B-EGFP-mCherry at 2 to 4 uM incubated for 24 hrs by DAPI staining based confocal microscopic analysis; type: functional, cell-based; settings: dose 2-4 µM
HCT-116 [21] = assay: Induction of autophagy in human HCT-116 cells expressing ATG5-FLAG assessed as increase in LC3-II expression upto 4 uM measured after 24 hrs by Western blot analysis; type: functional, cell-based
HCT-116 [22] = assay: Upregulation of hedgehog signaling pathway in human HCT-116 cells at 2 uM incubated for 24 hrs by RNA sequencing analysis; type: functional, cell-based
HCT-116 [23] = assay: Inhibition of colony formation in ATG7 knockout human HCT-116 cells upto 4 uM […] by crystal violet staining based analysis; type: functional, cell-based
HCT-116 [24] = assay: Induction of autophagy in ATG5 knockout human HCT-116 cells assessed as increase in LC3-II expression upto 4 uM measured after 24 hrs by Western blot analysis; type: functional, cell-based
HCT-116 [25] = assay: Downregulation of Myc-v1 in human HCT-116 cells at 2 uM incubated for 24 hrs by RNA sequencing analysis; type: functional, cell-based
CWR22R = assay: Antiproliferative activity against human 22Rv1 cells assessed as inhibition of cell growth measured after 48 hrs by MTT assay; type: functional, cell-based; settings: 22Rv1, 48 h
HCT-116 [26] = assay: Downregulation of mTORC1 signaling pathway in human HCT-116 cells at 2 uM incubated for 24 hrs by RNA sequencing analysis; type: functional, cell-based
HCT-116 [27] = assay: Upregulation of inflammatory response gene in human HCT-116 cells at 2 uM incubated for 24 hrs by RNA sequencing analysis; type: functional, cell-based
HCT-116 [28] = assay: Induction of apoptosis in human HCT-116 cells assessed as late apoptotic cells at 2 uM incubated for 24 hrs in presence of Z-VAD-FMK by annexin V FITC/propidium iodide staining based flow cytometry (reference value: 4.6 %); type: functional
MCF7 = assay: Antiproliferative activity against human MCF7 cells assessed as inhibition of cell growth measured after 48 hrs by MTT assay; type: functional, cell-based; settings: MCF7, 48 h
HCT-116 [29] = assay: Induction of morphological changes in human HCT-116 cells assessed as reduction in intercellular contact at 2 to 6 uM measured after 24 hrs by microscopic analysis; type: functional, cell-based; settings: dose 2-6 µM
HCT-116 [30] = assay: Induction of autophagy in human HCT-116 cells assessed as increase in LC3-II expression at 3 uM measured upto 36 hrs by Western blot analysis; type: functional, cell-based
HCT-116 [31] = assay: Induction of apoptosis in ATG5 knockout human HCT-116 cells assessed as increase in caspase 3 expression upto 4 uM incubated for 24 hrs by Western blot analysis; type: functional, cell-based
HCT-116 [32] = assay: Induction of autophagy in human HCT-116 cells assessed as increase in LC3-II expression upto 5 uM incubated for 24 hrs by Western blot analysis; type: functional, cell-based

## CN1CCN(Cc2cc3c4ccccc4n(CCCc4ccccc4)c3c(CN3CCN(C)CC3)n2)CC1
HCT-116 [1]
  Activity: inactive
HCT-116 [2]
  Activity: 5.1%
BGC-823
  IC50: 24.8 µM
HCT-116 [3]
  inhibition: Active
HCT-116 [4]
  Activity: 6%
HCT-116 [5]
  IC50: 5.09 µM
HCT-116 [6]
  Activity: Active
HCT-116 [7]
  viability at 2 µM: 83.7%
HCT-116 [8]
  Activity: Active
HCT-116 [9]
  viability at 1 µM: 83.3%
HCT-116 [10]
  Activity: Active
HCT-116 [11]
  viability at 1 µM: 84.8%
HCT-116 [12]
  Activity: 3.6%
HCT-116 [13]
  Activity: Active
HCT-116 [14]
  Activity: inactive
HCT-116 [15]
  Activity: 6.8%
CT26
  Activity: Active
HCT-116 [16]
  Activity: Active
HCT-116 [17]
  Activity: inactive
HCT-116 [18]
  Activity: inactive
HCT-116 [19]
  IC50: 4.97 µM
A-375
  IC50: 11.5 µM
HCT-116 [20]
  Activity: Active
HCT-116 [21]
  Activity: Active
HCT-116 [22]
  Activity: Active
HCT-116 [23]
  inhibition: inactive
HCT-116 [24]
  Activity: inactive
HCT-116 [25]
  Activity: Active
CWR22R
  IC50: 3.86 µM
HCT-116 [26]
  Activity: Active
HCT-116 [27]
  Activity: Active
HCT-116 [28]
  Activity: 4.6%
MCF7
  IC50: 13.5 µM
HCT-116 [29]
  Activity: Active
HCT-116 [30]
  Activity: Active
HCT-116 [31]
  Activity: inactive
HCT-116 [32]
  Activity: Active

From ChEMBL document CHEMBL5352452, “Design, synthesis and pharmacological evaluation of β-carboline derivatives as potential antitumor agent via targeting autophagy” (Eur J Med Chem, 2023)
